Earlier results on one compound are cited in PubChem BioAssay AID1259409 (Chemical Carcinogenesis Research Information System (CCRIS), 2018).

The subject of the series is rodent chemically induced tumor inhibition, incidence and multiplicity. Kind of series: CCRIS tumor inhibitor studies. As to conditions: Route [Inhibitor]: ORAL, Promoter: NONE USED.

Consider `CC1=C(/C=C/C(C)=C/C=C/C(C)=C/C(=O)NCCO)C(C)(C)CCC1`, for which the “tumour outcome (control, treated, inhibition, significance)” value is 105/200 (53%), 49/100 (49%), 8%, p<0.5657 (Carcinogen: N-(4-(5-NITRO-2-FURYL)-2-THIAZOLYL)FORMAMIDE, 24554-26-5, Dose [Inhibitor]: 686 MG/KG/D IN DIET FOR 39 WK STARTING 1 WK POST CARCINOGEN TREATMENT (STUDY DURATION: 50 WK), Species: RAT, Strain/Sex: F344/FEMALE, Target Tissue: Type of Lesion: URINARY BLADDER: CARCINOMA, Dose [Carcinogen]: 2 G/KG/D IN DIET FOR 10 WK); 15/200 (7.5%), 17/100 (17%), -127%, p<0.012 (Carcinogen: N-(4-(5-NITRO-2-FURYL)-2-THIAZOLYL)FORMAMIDE, 24554-26-5, Dose [Inhibitor]: 686 MG/KG/D IN DIET FOR 39 WK STARTING 1 WK POST CARCINOGEN TREATMENT (STUDY DURATION: 50 WK), Species: RAT, Strain/Sex: F344/FEMALE, Target Tissue: Type of Lesion: URINARY BLADDER: PAPILLOMA, Dose [Carcinogen]: 2 G/KG/D IN DIET FOR 10 WK); 36/97 (37%), 22/75 (29%), 22%, not significant (Carcinogen: N-BUTYL-N-(4-HYDROXYBUTYL)NITROSAMINE, 3817-11-6, Dose [Inhibitor]: 0.5 MMOL/KG DIET DAILY FOR 16 WK STARTING 7 D AFTER FINAL CARCINOGEN DOSE (STUDY DURATION: 6 MO), Species: MOUSE, Strain/Sex: B6D2F1/MALE, Target Tissue: Type of Lesion: URINARY BLADDER: CARCINOMA, Dose [Carcinogen]: 5 OR 10 MG 2/WK FOR 9 WK); 36/97 (37%), 17/77 (22%), 41%, p<0.025 (Carcinogen: N-BUTYL-N-(4-HYDROXYBUTYL)NITROSAMINE, 3817-11-6, Dose [Inhibitor]: 1 MMOL/KG DIET DAILY FOR 16 WK STARTING 7 D AFTER FINAL CARCINOGEN DOSE (STUDY DURATION: 6 MO), Species: MOUSE, Strain/Sex: B6D2F1/MALE, Target Tissue: Type of Lesion: URINARY BLADDER: CARCINOMA, Dose [Carcinogen]: 5 OR 10 MG 2/WK FOR 9 WK); 31/55 (56%), 19/55 (35%), 38%, p<0.05 (Carcinogen: N-BUTYL-N-(4-HYDROXYBUTYL)NITROSAMINE, 3817-11-6, Dose [Inhibitor]: 1 MMOL/KG DIET DAILY FOR 108 D STARTING ONE WK AFTER THE FINAL CARCINOGEN DOSE (STUDY DURATION: 171 D), Species: MOUSE, Strain/Sex: BDF1/MALE, Target Tissue: Type of Lesion: URINARY BLADDER: TRANSITIONAL CELL CARCINOMA, Dose [Carcinogen]: 5 MG 2/WK FOR 9 WK); 29/98 (30%), 14/95 (15%), 50%, p<0.05 (Carcinogen: N-BUTYL-N-(4-HYDROXYBUTYL)NITROSAMINE, 3817-11-6, Dose [Inhibitor]: 1 MMOL/KG DIET DAILY FOR 159 D STARTING ONE WK AFTER THE FINAL CARCINOGEN DOSE (STUDY DURATION: 216 D), Species: MOUSE, Strain/Sex: BDF1/MALE, Target Tissue: Type of Lesion: URINARY BLADDER: TRANSITIONAL CELL CARCINOMA, Dose [Carcinogen]: 7.5 MG 1/WK FOR 8 WK). Further, the “tumour outcome (control, treated, inhibition, significance)” value is, setting by setting: (Carcinogen: N-BUTYL-N-(4-HYDROXYBUTYL)NITROSAMINE, 3817-11-6, Dose [Inhibitor]: 1.0 MMOL/KG/D IN DIET FOR 108 D STARTING 1 WK POST CARCINOGEN TREATMENT (STUDY DURATION: 171 D), Species: MOUSE, Strain/Sex: DBF1/MALE, Target Tissue: Type of Lesion: URINARY BLADDER: TRANSITIONAL CELL CARCINOMA, Dose [Carcinogen]: 5 MG 2/WK FOR 9 WK) 31/55 (56%), 19/55 (35%), 38%, p<0.05; (Carcinogen: N-BUTYL-N-(4-HYDROXYBUTYL)NITROSAMINE, 3817-11-6, Dose [Inhibitor]: 1.0 MMOL/KG/D IN DIET FOR 159 D STARTING 1 WK POST CARCINOGEN TREATMENT (STUDY DURATION: 216 D), Species: MOUSE, Strain/Sex: DBF1/MALE, Target Tissue: Type of Lesion: URINARY BLADDER: TRANSITIONAL CELL CARCINOMA, Dose [Carcinogen]: 7.5 MG 1/WK FOR 8 WK) 29/98 (30%), 14/95 (15%), 50%, p<0.05; (Carcinogen: N-BUTYL-N-(4-HYDROXYBUTYL)NITROSAMINE, 3817-11-6, Dose [Inhibitor]: 2 MMOL/KG DIET DAILY FOR 17 WK STARTING 7 D AFTER FINAL CARCINOGEN DOSE (STUDY DURATION: 6 MO), Species: RAT, Strain/Sex: F344/MALE, Target Tissue: Type of Lesion: URINARY BLADDER: TRANSITIONAL CELL CARCINOMA, Dose [Carcinogen]: 200 MG 2/WK FOR 8 WK) 55/60 (92%), 19/30 (63%), 32%, p<0.01; (Carcinogen: N-BUTYL-N-(4-HYDROXYBUTYL)NITROSAMINE, 3817-11-6, Dose [Inhibitor]: 2 MMOL/KG DIET DAILY FOR 19 WK STARTING 7 D AFTER FINAL CARCINOGEN DOSE (STUDY DURATION: 6 MO), Species: RAT, Strain/Sex: F344/FEMALE, Target Tissue: Type of Lesion: URINARY BLADDER: TRANSITIONAL CELL CARCINOMA, Dose [Carcinogen]: 150 MG 2/WK FOR 6 WK) 28/80 (35%), 5/40 (12%), 66%, p<0.01; (Carcinogen: N-METHYL-N-NITROSOUREA, 684-93-5, Dose [Inhibitor]: 2 MMOL/KG DIET DAILY STARTING 12 D AFTER CARCINOGEN TREATMENT THROUGH ABOUT 8 MO AFTER CARCINOGEN DOSE (STUDY DURATION:, Species: RAT, Strain/Sex: F344/MALE, Target Tissue: Type of Lesion: COLON: ADENOCARCINOMA, Dose [Carcinogen]: 2.5 MG 1/WK FOR 2 WK) 5/39 (13%), 5/30 (17%), -31%, not significant.
